Key:
[1] = biological target: Matrix metalloproteinase-9 (Homo sapiens, UniProt P14780); assay: In vitro inhibitory activity against matrix metalloprotease-9.
Interstitial collagenase = biological target: T1, Interstitial collagenase (Homo sapiens, UniProt P03956); assay: In vitro inhibitory activity against matrix metalloprotease-1
T1 sequence (P03956 whole entry): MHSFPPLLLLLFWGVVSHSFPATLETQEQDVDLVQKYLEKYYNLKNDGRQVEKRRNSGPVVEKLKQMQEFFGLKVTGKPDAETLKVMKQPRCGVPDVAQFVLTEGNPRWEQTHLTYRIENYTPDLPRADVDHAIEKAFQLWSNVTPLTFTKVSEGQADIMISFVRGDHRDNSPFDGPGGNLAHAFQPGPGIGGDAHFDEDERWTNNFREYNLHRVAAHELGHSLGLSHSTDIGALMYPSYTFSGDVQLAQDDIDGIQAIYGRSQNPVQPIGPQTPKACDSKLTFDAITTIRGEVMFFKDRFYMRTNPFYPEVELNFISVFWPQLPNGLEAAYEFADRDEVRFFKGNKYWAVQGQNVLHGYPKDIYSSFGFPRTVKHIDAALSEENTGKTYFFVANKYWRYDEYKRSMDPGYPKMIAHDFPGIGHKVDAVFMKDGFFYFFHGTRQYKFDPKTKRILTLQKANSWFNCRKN

[2] = In vivo inhibitory activity against Matrix metalloprotease enzyme by dialysis implant assay, value are relative to activity of CGS-27023 (41+/-4) at 25 mg/kg. po; type: functional
[3] = biological target: Disintegrin and metalloproteinase domain-containing protein 17 (Homo sapiens, UniProt P78536); assay: In vitro inhibitory activity against tumor necrosis factor alpha converting enzyme (TACE).
Collagenase 3 = Collagenase 3 (Homo sapiens, UniProt P45452)
[4] = In vivo inhibitory activity against Matrix metalloprotease enzyme by dialysis implant assay, value is relative to activity of CGS-27023 (53+/-3) at 25 mg/kg. po; type: functional
[5] = In vivo inhibitory activity against Matrix metalloprotease enzyme by dialysis implant assay, value are relative to activity of CGS-27023 (71+/-2) at 25 mg/kg. po; type: functional
Rattus norvegicus = assay: In vivo inhibition of Matrix metalloprotease enzyme by Sponge-wrapped cartilage assay at 25 mg/kg. po. qd; type: functional

Chain of Matrix metalloproteinase-9 (P14780 whole entry): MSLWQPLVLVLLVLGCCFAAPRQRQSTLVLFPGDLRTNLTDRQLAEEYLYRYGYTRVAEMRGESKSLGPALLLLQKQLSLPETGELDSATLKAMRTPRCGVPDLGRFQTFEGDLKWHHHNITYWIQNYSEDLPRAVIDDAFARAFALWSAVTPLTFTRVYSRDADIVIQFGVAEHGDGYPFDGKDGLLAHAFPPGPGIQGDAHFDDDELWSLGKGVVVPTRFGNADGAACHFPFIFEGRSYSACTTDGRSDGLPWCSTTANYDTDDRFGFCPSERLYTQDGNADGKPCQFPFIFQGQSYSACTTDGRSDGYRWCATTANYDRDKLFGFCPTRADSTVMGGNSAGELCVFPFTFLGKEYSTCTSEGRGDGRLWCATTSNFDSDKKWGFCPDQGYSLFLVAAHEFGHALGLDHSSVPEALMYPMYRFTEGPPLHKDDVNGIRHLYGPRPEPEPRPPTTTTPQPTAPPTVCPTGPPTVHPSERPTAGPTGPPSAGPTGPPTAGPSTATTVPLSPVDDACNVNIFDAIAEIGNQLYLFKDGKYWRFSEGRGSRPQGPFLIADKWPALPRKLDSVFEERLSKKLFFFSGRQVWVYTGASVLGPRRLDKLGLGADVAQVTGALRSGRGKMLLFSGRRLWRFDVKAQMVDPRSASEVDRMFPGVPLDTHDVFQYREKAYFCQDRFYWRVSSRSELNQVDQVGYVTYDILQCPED
Chain of Disintegrin and metalloproteinase domain-containing protein 17 (P78536 whole entry, the tested form may be a part): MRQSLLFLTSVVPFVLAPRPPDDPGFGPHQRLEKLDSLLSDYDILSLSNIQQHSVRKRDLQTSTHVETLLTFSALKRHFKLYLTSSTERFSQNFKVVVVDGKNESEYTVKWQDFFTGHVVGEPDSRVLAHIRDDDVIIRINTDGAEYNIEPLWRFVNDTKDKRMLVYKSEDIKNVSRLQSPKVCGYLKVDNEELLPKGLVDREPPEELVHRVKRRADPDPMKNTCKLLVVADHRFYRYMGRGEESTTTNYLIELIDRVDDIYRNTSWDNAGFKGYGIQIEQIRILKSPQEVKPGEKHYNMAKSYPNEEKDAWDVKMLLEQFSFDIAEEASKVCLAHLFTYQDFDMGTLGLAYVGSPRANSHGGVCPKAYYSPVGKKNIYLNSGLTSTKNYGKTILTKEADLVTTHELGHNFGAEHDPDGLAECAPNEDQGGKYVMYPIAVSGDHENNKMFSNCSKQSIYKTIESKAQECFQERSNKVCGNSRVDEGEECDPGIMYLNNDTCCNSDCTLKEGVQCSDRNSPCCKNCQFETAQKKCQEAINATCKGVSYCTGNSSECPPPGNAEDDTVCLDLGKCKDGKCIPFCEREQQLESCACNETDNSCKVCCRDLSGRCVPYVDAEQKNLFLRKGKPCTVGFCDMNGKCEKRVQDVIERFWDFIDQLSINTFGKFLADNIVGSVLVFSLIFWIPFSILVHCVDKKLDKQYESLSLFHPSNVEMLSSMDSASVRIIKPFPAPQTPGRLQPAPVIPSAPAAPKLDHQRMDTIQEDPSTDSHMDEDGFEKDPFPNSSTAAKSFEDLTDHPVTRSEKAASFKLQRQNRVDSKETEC

| Structure (SMILES) | IC50 [1] | IC50 (Interstitial collagenase) | inhibition in vivo at 25 mg/kg [2] | IC50 [3] | IC50 (Collagenase 3) | inhibition in vivo at 25 mg/kg [4] | inhibition in vivo at 25 mg/kg [5] | Protection (Rattus norvegicus) |
| --- | --- | --- | --- | --- | --- | --- | --- | --- |
| COc1ccc(S(=O)(=O)C2(C(=O)NO)CCN(Cc3ccc(-c4cccs4)cc3)CC2)cc1 | 0.011 µM | 0.531 µM | 12% | 0.273 µM | 0.003 µM |  |  |  |
| COc1ccc(S(=O)(=O)C2(C(=O)NO)CCN(CCCc3ccccc3)CC2)cc1 | 0.013 µM |  |  |  |  | 9% |  |  |
| O=C(NO)C1(S(=O)(=O)c2ccc(-c3ccco3)cc2)CCN(Cc2ccccc2)CC1 | 0.003 µM | 0.04 µM |  | 0.416 µM |  |  | 95% |  |
| COc1ccc(S(=O)(=O)C(C)(Cc2ccc(OCCN3CCCCC3)cc2)C(=O)NO)cc1 (configuration not stated) |  |  |  |  |  |  |  | 68% |
